Measurements from publication PMC13503280, “A pharmacological modality to sequester homomeric proteins” (Nature Chemical Biology, 2026).

Assays:
Ramos cells = experiment: Viability measurements, Ramos cells; format: cell-based; details: Ramos, 72 h
Protocol: (§1) Cells were seeded in a transparent-bottom, black 96-well plate, at 15,000 cells per well in sixfold replications. in 90 µl of medium and left to adhere for at least 4 h. The cells were then treated with the respective compound by adding 10 µl of medium–-compound mixture for a final volume of 100 µl in each well. Cell-Titer blue reagent was used to measure viability according to the manufacturer’s instructions. Plate reader measurements were performed on a Tecan Spark Control 10 M fluorescence system.

HEK 293 cells = experiment: Viability measurements, HEK 293 cells; format: cell-based; details: HEK 293, 72 h
Protocol: as §1

Keap1 [1] = molecular target: T1, Keap1 (Homo sapiens, UniProt Q14145); experiment: Global proteomics of soluble lysate of U2OS cells; format: cell-based; details: EL133 250 nM, 20 h, RIPA lysis, relative to control
T1 sequence (Q14145 whole entry): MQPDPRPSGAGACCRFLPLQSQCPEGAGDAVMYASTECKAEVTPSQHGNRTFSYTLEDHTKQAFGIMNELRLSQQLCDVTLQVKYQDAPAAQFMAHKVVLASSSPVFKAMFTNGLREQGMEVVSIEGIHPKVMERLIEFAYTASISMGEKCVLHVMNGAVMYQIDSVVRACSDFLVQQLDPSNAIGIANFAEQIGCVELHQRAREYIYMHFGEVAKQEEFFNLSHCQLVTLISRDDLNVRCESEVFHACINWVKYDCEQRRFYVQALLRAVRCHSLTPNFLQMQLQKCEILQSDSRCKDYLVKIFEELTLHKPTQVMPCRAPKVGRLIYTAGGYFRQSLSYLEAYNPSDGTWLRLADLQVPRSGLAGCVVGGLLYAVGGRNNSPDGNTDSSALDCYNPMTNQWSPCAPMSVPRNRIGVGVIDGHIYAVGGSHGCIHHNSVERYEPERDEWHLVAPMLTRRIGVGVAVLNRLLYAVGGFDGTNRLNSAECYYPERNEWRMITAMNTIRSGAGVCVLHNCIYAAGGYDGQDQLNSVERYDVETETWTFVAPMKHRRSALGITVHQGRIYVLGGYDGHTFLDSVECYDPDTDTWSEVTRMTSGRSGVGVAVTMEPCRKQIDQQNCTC
Protocol: Cells were incubated with DMSO at 0.1% or with compound for 20 h unless indicated differently, in quadruplicate. […] Samples were then reduced using DTT, followed by reaction with iodoacetamide. The labeled proteins were then precipitated on a dispersion of glass beads, followed by overnight trypsin digestion and purification of peptides. Samples were analyzed using an EASY-nLC 1200 nano-flow ultrahigh-performance LC system, equipped with a PepMap RSLC C18 column (particle size: 2 µm, pore size: 100 Å, diameter: 75 µm, length: 50 cm), mounted using an EASY-Spray source onto an Exploris 240 MS instrument. LC–MS-grade solvents were used for all chromatographic steps at 300 nl min^−1. The mobile phase consisted of solvent A (H2O + 0.1% formic acid) and solvent B (80% acetonitrile + 0.1% formic acid). Peptides were eluted from the column into the MS instrument using the following gradient: 1–40% B in 160 min, 40–100% B in 5 min, maintained at 100% for 20 min, 100–1% in 10 min and finally 1% for 5 min. […] Initially, data were acquired in data-independent acquisition mode. […] Four samples were analyzed per condition.
Data analysis was performed using Fragpipe[87],[88] […] Label-free quantification was performed using DIANN. After analysis, the quantified protein file was analyzed using Perseus[89]. […] Differences and P values were calculated using a double-sided Student’s t-test. […]

NQO1 expression = experiment: qPCR for NQO1 expression in OCI-AML2 cells after washout; format: cell-based; details: OCI-AML2, 250 nM 20 h, from 48 h after treatment
Protocol: Cells were treated with either DMSO or compound at 250 nM, followed by washing out the treated medium after 20 h and reseeding in fresh medium. Cells were then collected at several time points post washout. Total RNA was extracted using RNeasy mini kit (Qiagen, 74104). […] PCR amplification was carried out in Step-One Plus thermocycler (Applied Biosystems). Relative quantification was performed using standard curves. GAPDH was used for normalization.

recombinant Keap1 BTB = molecular target: T2, recombinant Keap1 BTB (Homo sapiens, UniProt Q14145, S172A); experiment: In vitro crosslinking of Keap1 BTB using GA; format: biochemical; details: 50 µM Keap1, 50 µM compound
T2 construct: The Keap1 BTB domain (48–180) encoding the single substitution S172A was cloned into pET28-bdSumo vector; His–bdSumo (N, cleaved yes); made in house; host or cells: E. coli BL21(DE3)
T2 sequence (Q14145 48-180 S172A): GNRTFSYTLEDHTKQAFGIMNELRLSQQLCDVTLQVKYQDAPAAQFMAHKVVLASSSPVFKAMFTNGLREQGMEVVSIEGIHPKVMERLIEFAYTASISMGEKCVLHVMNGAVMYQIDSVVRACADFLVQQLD
Protocol: Recombinant Keap1 samples were incubated at room temperature in desired conditions in a buffer containing 25 mM HEPES, 150 mM NaCl pH 8, 1 mM TCEP and 0.01% Tween. At the selected time point, each sample was treated with a 7.5% aqueous solution of GA (prepared fresh) for a final GA concentration of 0.125% and mixed gently. The crosslinking reaction was left at room temperature for 40 min, followed by addition of NuPage gel sample buffer with 20 mM DTT and boiling at 95 °C for 5 min. Lastly, 2–3 μg of each sample was loaded and run on an SDS–PAGE gel. Bands were visualized using a Coomassie blue solution.

U2OS cells = experiment: Viability measurements, U2OS cells; format: cell-based
Protocol: as §1

[2] = system: RAS GTPase-activating protein-binding protein 1; experiment: Colocalization with RAS GTPase-activating protein-binding protein 1 (stress granules); format: cell-based
Keap1 [3] = molecular target: T1, Keap1; experiment: Immunostaining of endogenous Keap1 puncta in U2OS cells; format: cell-based; set-up: We visualized the subcellular localization of endogenous Keap1 following PINCH treatment by immunofluorescence in U2OS cells; endogenous in cells; host or cells: U2OS (ATCC HTB-96); details: 250 nM
Protocol: The cells were then blocked with 5% BSA for 60 min at room temperature. Cells were stained with primary antibody, at a concentration of 1:100, for 3 h at room temperature and were then subjected to a secondary antibody conjugated to Alexa Fluor, at a concentration of 1:100–500, for 1 h at room temperature. Lastly, cells were also stained with DAPI for 10 min at room temperature.
Imaging of the cells was performed using a Dragonfly spinning disk confocal system (Andor Technology) connected to an inverted Leica Dmi8 microscope (Leica Microsystems). The signals were detected using a scientific complementary metal–oxide–semiconductor Zyla (Andor) 2,048 × 2,048 camera and the bit depth was 16. At the specified intervals, Z stacks (0.17 µm) of selected cells were acquired with an HC PL APO ×63/1.3 GLYC CORR CS2 objective (506353, Leica Microsystems).
Automatic aggregate segmentation was conducted using the surface module with manual threshold fixed for all images of the same experiment (default 2-pixel smoothing, background subtraction with 0.9-μm largest sphere, morphological split with 0.5-μm seed point diameter). […]
Spots were considered colocalized if their centers were up to 1 μm apart. We manually segmented each cell in 3D using the Surface module and quantified the number percentage and the total puncta volume percentage of colocalized spots for each cell.

SMILES: CC1(C)CCC2(C(=O)NCCOCCOCCNC(=O)C34CCC(C)(C)CC3C3C(=O)C=C5C6(C)C=C(C#N)C(=O)C(C)(C)C6CCC5(C)C3(C)CC4)CCC3(C)C(C(=O)C=C4C5(C)C=C(C#N)C(=O)C(C)(C)C5CCC43C)C2C1 (stereo not drawn) [EL133]
- additional viability loss compared with BDX (Ramos cells): no additional viability loss
- additional viability loss compared with BDX (HEK 293 cells): no additional viability loss
- Keap1 level in soluble fraction (quantitative proteomics) (Keap1 [1]): significantly downregulated
- duration of NQO1 upregulation after washout (NQO1 expression): remained higher
- higher-order assemblies after GA crosslinking (SDS–PAGE) (recombinant Keap1 BTB): induced the formation of higher-order assemblies
- difference in viability IC50 over BDX (U2OS cells): threefold
- IC50 (U2OS cells; Homo sapiens, 72 h): 254 nM
- formation of stress granules [2]: does not induce the formation of its characteristic stress granules
- Keap1 puncta (immunofluorescence) (Keap1 [3]): bright punctate structures
